Experimental data taken from ChEMBL document CHEMBL3352482, “Discovery of potent N-(isoxazol-5-yl)amides as HSP90 inhibitors” (Eur J Med Chem, 2014).

Key:
[1] = Intrinsic clearance in rat liver microsomes assessed per mg protein; format: ADME; settings: read-out: CLH
A549 = assay: Growth inhibition of human A549 cells after 72 hrs by SRB assay; format: functional; settings: A549, 72 h
[2] = Antitumor activity against human U87MG cells xenografted in mouse assessed as tumor growth inhibition at 50 mg/kg, iv dosed 3 times per week for 17 consecutive days relative to control; format: functional, U-87MG ATCC
CYP2D6 = CYP2D6 (Homo sapiens, UniProt P10635); assay: Inhibition of CYP2D6 in human liver microsomes at 10 uM after 20 mins
CYP1A2 = biological target: T1, CYP1A2 (Homo sapiens, UniProt P05177); assay: Inhibition of CYP1A2 in human liver microsomes at 10 uM after 20 mins
T1 sequence (P05177 whole entry): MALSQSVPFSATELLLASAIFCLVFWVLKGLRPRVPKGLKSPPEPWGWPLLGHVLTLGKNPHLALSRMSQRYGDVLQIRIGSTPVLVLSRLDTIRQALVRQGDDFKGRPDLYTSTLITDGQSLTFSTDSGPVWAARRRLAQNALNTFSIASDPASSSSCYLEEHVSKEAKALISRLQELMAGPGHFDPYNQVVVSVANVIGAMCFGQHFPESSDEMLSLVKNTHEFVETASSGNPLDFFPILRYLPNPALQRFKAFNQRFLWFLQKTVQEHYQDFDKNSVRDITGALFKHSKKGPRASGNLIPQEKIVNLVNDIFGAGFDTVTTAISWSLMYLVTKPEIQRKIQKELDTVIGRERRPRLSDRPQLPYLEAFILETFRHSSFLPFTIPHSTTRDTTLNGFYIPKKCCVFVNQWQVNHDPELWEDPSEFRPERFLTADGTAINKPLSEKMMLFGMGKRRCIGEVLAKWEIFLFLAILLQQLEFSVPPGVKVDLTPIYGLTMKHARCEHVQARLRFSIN

CYP3A4 = CYP3A4 (Homo sapiens, UniProt P08684); assay: Inhibition of CYP3A4 in human liver microsomes at 10 uM after 20 mins; settings: human liver microsomes
[3] = Intrinsic clearance in human liver microsomes assessed per mg protein; format: ADME; settings: read-out: CLH
CYP2C9 = CYP2C9 (Homo sapiens, UniProt P11712); assay: Inhibition of CYP2C9 in human liver microsomes at 10 uM after 20 mins
Mus musculus = assay: Toxicity in human U87MG cells xenografted mouse assessed as weight loss at 25 to 50 mg/kg, iv dosed 3 times per week for 17 consecutive days relative to control; format: organism-based, U-87MG ATCC; parameters: dose 25-50 mg/kg, route intravenous; settings: in vivo
[4] = Antitumor activity against human U87MG cells xenografted in mouse assessed as tumor growth inhibition at 25 mg/kg, iv dosed 3 times per week for 17 consecutive days relative to control; format: functional, U-87MG ATCC

Chain of CYP3A4 (P08684 whole entry): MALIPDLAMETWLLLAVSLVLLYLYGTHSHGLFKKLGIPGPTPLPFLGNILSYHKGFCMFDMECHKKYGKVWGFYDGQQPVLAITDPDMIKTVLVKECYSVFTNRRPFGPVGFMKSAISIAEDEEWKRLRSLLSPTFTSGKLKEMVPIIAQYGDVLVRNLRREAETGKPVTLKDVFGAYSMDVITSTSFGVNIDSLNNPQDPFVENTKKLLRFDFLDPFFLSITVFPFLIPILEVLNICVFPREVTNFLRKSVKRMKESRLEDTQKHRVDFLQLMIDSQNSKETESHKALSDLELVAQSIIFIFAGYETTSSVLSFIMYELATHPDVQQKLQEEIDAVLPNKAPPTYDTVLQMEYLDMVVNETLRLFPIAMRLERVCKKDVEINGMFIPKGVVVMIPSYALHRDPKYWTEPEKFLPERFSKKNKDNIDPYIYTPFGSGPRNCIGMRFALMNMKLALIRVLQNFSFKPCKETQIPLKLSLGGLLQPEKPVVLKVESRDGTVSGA
Chain of CYP2D6 (P10635 whole entry): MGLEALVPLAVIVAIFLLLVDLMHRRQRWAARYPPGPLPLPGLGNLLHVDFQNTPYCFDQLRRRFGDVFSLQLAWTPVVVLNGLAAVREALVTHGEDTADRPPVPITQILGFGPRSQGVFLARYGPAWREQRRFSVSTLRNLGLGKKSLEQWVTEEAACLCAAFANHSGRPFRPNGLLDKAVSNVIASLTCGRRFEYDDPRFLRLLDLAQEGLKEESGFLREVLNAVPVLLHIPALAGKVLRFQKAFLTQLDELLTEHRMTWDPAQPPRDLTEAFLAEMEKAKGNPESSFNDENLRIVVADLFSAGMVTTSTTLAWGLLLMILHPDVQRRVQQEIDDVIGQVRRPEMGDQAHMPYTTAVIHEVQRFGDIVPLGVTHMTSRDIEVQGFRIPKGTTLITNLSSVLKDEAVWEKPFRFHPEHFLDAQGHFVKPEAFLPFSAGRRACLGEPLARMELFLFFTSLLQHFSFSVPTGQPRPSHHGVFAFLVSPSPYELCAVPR
Chain of CYP2C9 (P11712 whole entry): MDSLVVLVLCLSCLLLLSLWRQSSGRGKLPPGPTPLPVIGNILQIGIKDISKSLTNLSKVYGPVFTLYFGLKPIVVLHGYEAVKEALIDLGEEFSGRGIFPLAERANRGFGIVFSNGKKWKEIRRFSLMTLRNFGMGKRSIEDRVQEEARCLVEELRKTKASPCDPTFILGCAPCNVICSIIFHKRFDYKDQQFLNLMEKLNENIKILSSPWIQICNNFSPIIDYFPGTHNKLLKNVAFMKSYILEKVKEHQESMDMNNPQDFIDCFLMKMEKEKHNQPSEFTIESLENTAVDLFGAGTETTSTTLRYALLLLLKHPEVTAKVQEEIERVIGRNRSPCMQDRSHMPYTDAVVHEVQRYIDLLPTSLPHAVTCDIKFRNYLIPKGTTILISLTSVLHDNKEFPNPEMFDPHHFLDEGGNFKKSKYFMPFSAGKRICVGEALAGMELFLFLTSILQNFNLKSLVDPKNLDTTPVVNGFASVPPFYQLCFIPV

CCNC(=O)c1noc(-c2cc(C(C)C)c(O)cc2O)c1-c1ccc(CN2CCOCC2)cc1 [LUMINESPIB]
microsomal CLint [1]: 180 µL/min/mg
GI50 (A549): 26 nM
T/C [2]: 34.06%
inhibition at 20 min, 10 µM (CYP2D6): 30%
inhibition at 20 min, 10 µM (CYP1A2): 23%
inhibition at 20 min, 10 µM (CYP3A4): 12%
microsomal CLint [3]: 92 µL/min/mg
inhibition at 20 min, 10 µM (CYP2C9): 46%

CC(C)c1cc(-c2noc(NC(=O)C3CC3)c2-c2ccc(CN3CCC(N4CCOCC4)CC3)cc2)c(O)cc1O.Cl
Activity (Mus musculus): Non-toxic
T/C [2]: 18.35%
T/C [4]: 48.28%
